Assay results: PubChem BioAssay (NCI)
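Assay format: 96-well plates, 48-hour exposure. TGI denotes the concentration required for complete inhibition of growth.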

Key:
Experiment in all cases: NCI anticancer screen, dose series, 48 h
786-0 renal = system: 786-0 renal
A498 renal = system: A498 renal
A549 NSCLC = system: A549 NSCLC
ACHN renal = system: ACHN renal
BT-549 breast = system: BT-549 breast
CAKI-1 renal = system: CAKI-1 renal
CCRF-CEM leukemia = system: CCRF-CEM leukemia
COLO 205 colon = system: COLO 205 colon
EKVX NSCLC = system: EKVX NSCLC
HCT-116 colon = system: HCT-116 colon
HCT-15 colon = system: HCT-15 colon
HL-60(TB) leukemia = system: HL-60(TB) leukemia
HOP-62 NSCLC = system: HOP-62 NSCLC
HOP-92 NSCLC = system: HOP-92 NSCLC
HS 578T breast = system: HS 578T breast
HT29 colon = system: HT29 colon
IGROV1 ovarian = system: IGROV1 ovarian
K-562 leukemia = system: K-562 leukemia
KM12 colon = system: KM12 colon
M14 melanoma = system: M14 melanoma
MALME-3M melanoma = system: MALME-3M melanoma
MCF7 breast = system: MCF7 breast
MDA-MB-231 breast = system: MDA-MB-231 breast
MDA-MB-435 = system: MDA-MB-435
MDA-N = system: MDA-N
MOLT-4 leukemia = system: MOLT-4 leukemia
NCI-H226 lung = system: NCI-H226 lung
NCI-H23 lung = system: NCI-H23 lung
NCI-H460 lung = system: NCI-H460 lung
NCI-H522 lung = system: NCI-H522 lung
NCI/ADR-RES ovarian = system: NCI/ADR-RES ovarian
OVCAR-3 ovarian = system: OVCAR-3 ovarian
OVCAR-4 ovarian = system: OVCAR-4 ovarian
OVCAR-5 ovarian = system: OVCAR-5 ovarian
OVCAR-8 ovarian = system: OVCAR-8 ovarian
PC-3 prostate = system: PC-3 prostate
RPMI-8226 leukemia = system: RPMI-8226 leukemia
RXF 393 renal = system: RXF 393 renal
SF-268 CNS = system: SF-268 CNS
SF-295 CNS = system: SF-295 CNS
SF-539 CNS = system: SF-539 CNS
SK-MEL-2 melanoma = system: SK-MEL-2 melanoma
SK-MEL-28 melanoma = system: SK-MEL-28 melanoma
SK-MEL-5 melanoma = system: SK-MEL-5 melanoma
SK-OV-3 ovarian = system: SK-OV-3 ovarian
SN12C renal = system: SN12C renal
SNB-19 CNS = system: SNB-19 CNS
SR leukemia = system: SR leukemia
T-47D breast = system: T-47D breast
TK-10 renal = system: TK-10 renal
U251 CNS = system: U251 CNS
UACC-257 melanoma = system: UACC-257 melanoma
UACC-62 melanoma = system: UACC-62 melanoma
UO-31 renal = system: UO-31 renal
LOX IMVI melanoma = system: LOX IMVI melanoma
SNB-75 CNS = system: SNB-75 CNS
SW-620 colon = system: SW-620 colon

Cc1cc(S(=O)(=O)N/C(=C(\C#N)C(=O)c2ccccc2)[n+]2ccc(N(C)C)cc2)c([S-])cc1Cl was tested. Which TGI (786-0 renal) did it give?
Its TGI is over 100 µM.

And the TGI (A498 renal)?
The TGI was over 100 µM.

And the TGI (A549 NSCLC)?
Its TGI is over 100 µM.

What about the TGI (ACHN renal) of the same molecule?
The TGI was over 100 µM.

And the TGI (BT-549 breast)?
The TGI was over 100 µM.

And the TGI (CAKI-1 renal)?
Its TGI is over 100 µM.

And the TGI (CCRF-CEM leukemia)?
The TGI was over 100 µM.

And the TGI (COLO 205 colon)?
Its TGI is over 100 µM.

What about the TGI (EKVX NSCLC) of the same molecule?
The TGI was over 100 µM.

And the TGI (HCT-116 colon)?
Its TGI is over 100 µM.

What about the TGI (HCT-15 colon) of the same molecule?
Its TGI is over 100 µM.

What about the TGI (HL-60(TB) leukemia) of the same molecule?
Its TGI is over 100 µM.

And the TGI (HOP-62 NSCLC)?
The TGI was over 100 µM.

What about the TGI (HOP-92 NSCLC) of the same molecule?
Its TGI is 0.994 µM.

And the TGI (HS 578T breast)?
Its TGI is over 100 µM.

What about the TGI (HT29 colon) of the same molecule?
Its TGI is over 100 µM.

And the TGI (IGROV1 ovarian)?
The TGI was over 100 µM.

And the TGI (K-562 leukemia)?
The TGI was over 100 µM.

What about the TGI (KM12 colon) of the same molecule?
The TGI was over 100 µM.

And the TGI (M14 melanoma)?
The TGI was over 100 µM.

What about the TGI (MALME-3M melanoma) of the same molecule?
The TGI was 94 µM.

What about the TGI (MCF7 breast) of the same molecule?
Its TGI is over 100 µM.

What about the TGI (MDA-MB-231 breast) of the same molecule?
The TGI was over 100 µM.

And the TGI (MDA-MB-435)?
Its TGI is over 100 µM.

What about the TGI (MDA-N) of the same molecule?
Its TGI is over 100 µM.

And the TGI (MOLT-4 leukemia)?
Its TGI is over 100 µM.

What about the TGI (NCI-H226 lung) of the same molecule?
The TGI was over 100 µM.

What about the TGI (NCI-H23 lung) of the same molecule?
The TGI was over 100 µM.

What about the TGI (NCI-H460 lung) of the same molecule?
Its TGI is over 100 µM.

And the TGI (NCI-H522 lung)?
The TGI was over 100 µM.

What about the TGI (NCI/ADR-RES ovarian) of the same molecule?
The TGI was over 100 µM.

What about the TGI (OVCAR-3 ovarian) of the same molecule?
Its TGI is over 100 µM.

And the TGI (OVCAR-4 ovarian)?
Its TGI is over 100 µM.

And the TGI (OVCAR-5 ovarian)?
The TGI was over 100 µM.

What about the TGI (OVCAR-8 ovarian) of the same molecule?
Its TGI is over 100 µM.

What about the TGI (PC-3 prostate) of the same molecule?
The TGI was over 100 µM.

What about the TGI (RPMI-8226 leukemia) of the same molecule?
Its TGI is over 100 µM.

What about the TGI (RXF 393 renal) of the same molecule?
The TGI was over 100 µM.

What about the TGI (SF-268 CNS) of the same molecule?
Its TGI is over 100 µM.

What about the TGI (SF-295 CNS) of the same molecule?
Its TGI is over 100 µM.

And the TGI (SF-539 CNS)?
The TGI was over 100 µM.

And the TGI (SK-MEL-2 melanoma)?
The TGI was over 100 µM.

What about the TGI (SK-MEL-28 melanoma) of the same molecule?
The TGI was over 100 µM.

What about the TGI (SK-MEL-5 melanoma) of the same molecule?
Its TGI is over 100 µM.

What about the TGI (SK-OV-3 ovarian) of the same molecule?
Its TGI is over 100 µM.

What about the TGI (SN12C renal) of the same molecule?
Its TGI is over 100 µM.

What about the TGI (SNB-19 CNS) of the same molecule?
The TGI was over 100 µM.

What about the TGI (SR leukemia) of the same molecule?
The TGI was over 100 µM.

And the TGI (T-47D breast)?
The TGI was over 100 µM.

And the TGI (TK-10 renal)?
Its TGI is over 100 µM.

And the TGI (U251 CNS)?
Its TGI is over 100 µM.

And the TGI (UACC-257 melanoma)?
The TGI was over 100 µM.

And the TGI (UACC-62 melanoma)?
Its TGI is over 100 µM.

And the TGI (UO-31 renal)?
Its TGI is over 100 µM.

Which TGI (786-0 renal) does the source give for CC1CC(c2ccccc2)Nc2nc3ccccc3n21 (stereo not given) here?
The TGI was over 100 µM.

And the TGI (A498 renal)?
The TGI was over 100 µM.

And the TGI (A549 NSCLC)?
The TGI was over 100 µM.

What about the TGI (ACHN renal) of the same molecule?
The TGI was over 100 µM.

What about the TGI (BT-549 breast) of the same molecule?
Its TGI is over 100 µM.

What about the TGI (CAKI-1 renal) of the same molecule?
The TGI was over 100 µM.

And the TGI (CCRF-CEM leukemia)?
The TGI was over 100 µM.

And the TGI (COLO 205 colon)?
Its TGI is over 100 µM.

What about the TGI (EKVX NSCLC) of the same molecule?
The TGI was over 100 µM.

And the TGI (HCT-116 colon)?
Its TGI is over 100 µM.

And the TGI (HCT-15 colon)?
Its TGI is over 100 µM.

And the TGI (HL-60(TB) leukemia)?
The TGI was over 100 µM.

And the TGI (HOP-62 NSCLC)?
Its TGI is over 100 µM.

And the TGI (HOP-92 NSCLC)?
Its TGI is over 100 µM.

And the TGI (HS 578T breast)?
Its TGI is over 100 µM.

What about the TGI (HT29 colon) of the same molecule?
Its TGI is over 100 µM.

What about the TGI (IGROV1 ovarian) of the same molecule?
Its TGI is over 100 µM.

What about the TGI (K-562 leukemia) of the same molecule?
The TGI was over 100 µM.

And the TGI (KM12 colon)?
Its TGI is over 100 µM.

What about the TGI (LOX IMVI melanoma) of the same molecule?
The TGI was over 100 µM.

And the TGI (M14 melanoma)?
The TGI was over 100 µM.

What about the TGI (MALME-3M melanoma) of the same molecule?
The TGI was over 100 µM.

What about the TGI (MCF7 breast) of the same molecule?
Its TGI is over 100 µM.

And the TGI (MDA-MB-231 breast)?
Its TGI is over 100 µM.

And the TGI (MDA-MB-435)?
Its TGI is over 100 µM.

What about the TGI (MDA-N) of the same molecule?
Its TGI is over 100 µM.

What about the TGI (MOLT-4 leukemia) of the same molecule?
The TGI was over 100 µM.

And the TGI (NCI-H226 lung)?
The TGI was over 100 µM.

And the TGI (NCI-H23 lung)?
Its TGI is over 100 µM.

And the TGI (NCI-H460 lung)?
The TGI was over 100 µM.

What about the TGI (NCI-H522 lung) of the same molecule?
The TGI was over 100 µM.

And the TGI (NCI/ADR-RES ovarian)?
The TGI was over 100 µM.

What about the TGI (OVCAR-3 ovarian) of the same molecule?
Its TGI is over 100 µM.

And the TGI (OVCAR-4 ovarian)?
The TGI was over 100 µM.

What about the TGI (OVCAR-5 ovarian) of the same molecule?
The TGI was over 100 µM.

And the TGI (OVCAR-8 ovarian)?
The TGI was over 100 µM.

What about the TGI (PC-3 prostate) of the same molecule?
Its TGI is over 100 µM.

And the TGI (RPMI-8226 leukemia)?
Its TGI is over 100 µM.

What about the TGI (RXF 393 renal) of the same molecule?
Its TGI is over 100 µM.

And the TGI (SF-268 CNS)?
The TGI was over 100 µM.

What about the TGI (SF-295 CNS) of the same molecule?
The TGI was over 100 µM.

And the TGI (SF-539 CNS)?
The TGI was over 100 µM.

What about the TGI (SK-MEL-2 melanoma) of the same molecule?
The TGI was over 100 µM.

And the TGI (SK-MEL-28 melanoma)?
The TGI was over 100 µM.

And the TGI (SK-MEL-5 melanoma)?
The TGI was over 100 µM.

And the TGI (SK-OV-3 ovarian)?
Its TGI is over 100 µM.

What about the TGI (SNB-19 CNS) of the same molecule?
Its TGI is over 100 µM.

What about the TGI (SNB-75 CNS) of the same molecule?
The TGI was over 100 µM.

And the TGI (SR leukemia)?
The TGI was over 100 µM.

And the TGI (SW-620 colon)?
Its TGI is over 100 µM.

What about the TGI (T-47D breast) of the same molecule?
The TGI was over 100 µM.

And the TGI (TK-10 renal)?
The TGI was over 100 µM.

What about the TGI (U251 CNS) of the same molecule?
The TGI was over 100 µM.

What about the TGI (UACC-257 melanoma) of the same molecule?
Its TGI is over 100 µM.

And the TGI (UACC-62 melanoma)?
The TGI was over 100 µM.

And the TGI (UO-31 renal)?
The TGI was over 100 µM.
